# Experimental data from publication PMC10394673, “Module walking using an SH3-like cell-wall-binding domain leads to a new GH184 family of muramidases” (Acta Crystallographica. Section D, Structural Biology, 2023).
# Peptide text beside a SMILES is read from it.
# Assays:
# TsCWBD [1] = molecular target: T1, TsCWBD (Trichophaea saccata, UniProt A0AA82WPC9); assay: nanoDSF thermal shift; format: binding; settings: pH 8.5; Chelex-treated and untreated protein
# T1 construct: isolated N-terminal SH3-like CWBD, residues 1-73 of the 245-residue GH24 muramidase, about 10 kDa, recombinant; no catalytic domain
# T1 sequence (A0AA82WPC9 1-73): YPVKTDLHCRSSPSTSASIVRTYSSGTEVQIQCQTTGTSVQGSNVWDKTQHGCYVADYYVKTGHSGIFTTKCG
# TsCWBD [2] = molecular target: T1, TsCWBD; assay: X-ray crystal structure, […] A; format: binding; settings: co-crystallized with 10 mM triglycine, pH 8.5; canonical SH3 specificity zone (Asp6, His8, Arg10); zinc-bridged crystal contact
smiles,measurement,setting,value
NCC(=O)NCC(=O)NCC(=O)O [triglycine] (H-Gly-Gly-Gly-OH),thermal shift,TsCWBD [1],"the thermal shift is present for both treated and untreated samples, implying ligand binding"
same,"X-ray crystal structure, 1.18 A",TsCWBD [2],The triglycine in our structure is bound within the canonical specificity zone
